Assay [1] deals with T1, PfCRT variant E75A (Plasmodium falciparum, UniProt Q9N623, A220S/I356T/K76T/M74I/N326S/N75A/Q271E/R371I).
T1 sequence (Q9N623 1-424 M74I/N75A/K76T/A220S/Q271E/N326S/I356T/R371I): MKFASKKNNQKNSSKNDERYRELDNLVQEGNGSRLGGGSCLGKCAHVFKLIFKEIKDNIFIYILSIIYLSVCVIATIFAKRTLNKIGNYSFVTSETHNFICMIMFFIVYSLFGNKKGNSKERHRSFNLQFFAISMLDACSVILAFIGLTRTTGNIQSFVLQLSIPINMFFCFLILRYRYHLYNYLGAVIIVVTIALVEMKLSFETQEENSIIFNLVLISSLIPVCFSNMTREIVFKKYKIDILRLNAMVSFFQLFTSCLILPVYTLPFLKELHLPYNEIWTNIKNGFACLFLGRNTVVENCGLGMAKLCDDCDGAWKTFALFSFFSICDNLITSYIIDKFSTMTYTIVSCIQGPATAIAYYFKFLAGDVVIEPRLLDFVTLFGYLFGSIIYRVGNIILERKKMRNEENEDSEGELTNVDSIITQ
Description: CQ uptake assay, oocytes expressing E75A. In kind it is cell-based. On the procedure: (§1) Site-directed mutagenesis of PfCRT^Dd2 was performed as described using the megaprimer method with overlap extension[21],[54]. The primer pairs used are listed in Supplementary Table 6. Please note that a codon-optimized and oocyte-adapted version of PfCRT^Dd2 was used[22] (Supplementary Fig. 16). The resulting DNA fragment was cloned into the SP64T expression vector and verified by sequencing.
(§2) Oocytes were obtained as described previously. Briefly, adult (>2 years old) female X. laevis frogs (NASCO) were anesthetized in a cooled solution of ethyl 3-amino benzoate methanesulfonate (0.1%, w/v), followed by a surgical removal of parts of the ovary. The ovary lobes were carefully dissected and small pieces of oocytes were incubated in Ca^2+-free ND96 buffer (96 mM NaCl, 2 mM KCl, 1 mM MgCl2 buffered with 5 mM HEPES/NaOH, pH 7.5) supplemented with collagenase D (0.1%, w/v; Roche), BSA (0.5%, w/v), and 9 mm Na2HPO4 at 18 °C for 14-16 h while gentle shaking. After incubation, the oocytes were carefully washed several times with ND96 buffer (96 mM NaCl, 2 mM KCl, 1.8 mM CaCl2, 1 mM MgCl2 buffered with 5 mM HEPES/NaOH, pH 7.5) supplemented with 100 mg l^−1 gentamycin). Defolliculated and healthy-looking stage V-VI oocytes were manually selected for RNA microinjection. The RNA was generated as following: The codon-optimized sequences of PfCRT variants were cloned into the pSP64T expression vector. After vector linearization using the restriction endonucleases BamHI or SalI (New England Biolabs), transcription was performed using the in vitro SP6 mMessage mMachine Kit (Ambion)[34]. The obtained RNA was kept at −80 °C and diluted with nuclease-free water to a concentration of 0.6 μg μl^−1. Precision-bore glass capillary tubes (3.5-inch glass capillaries; Drummond Scientific Co.) were pulled on a vertical puller (P-87 Flaming/Brown micropipette puller, Sutter Instrument Co.), graduated, and placed on a microinjector (Nanoject II Auto-Nanoliter Injector, Drummond Scientific Co.). 50 nl of nuclease-free water alone (control oocytes) or 50 nl of 0.6 μg μl^−1 RNA were injected under stereomicroscopic control. Injected oocytes were incubated for 46–72 h at 18 °C with twice-daily buffer changes before usage in experiments.
(§3) Drug uptake assays were performed as described previously[21],[22],[24],[34]. […] The direction of radio-labeled drug transport is here from the mostly acidic extracellular solution (pH 4.5 or 6.0, as indicated) into the oocyte cytosol (pH ∼ 7.2), which corresponds to the efflux of drug from the acidic digestive vacuole (pH 5.2) into the parasite cytoplasm (pH 7.2). The topology of PfCRT in the oolemma is such that both the N- and C-terminus face the extracellular milieu[3],[22]. In the parasite, the N- and C-terminus face the lumen of the digestive vacuole. […] For determination of the amount of drug uptake for each oocyte, the reaction medium was removed and the oocytes were washed three times with 2 ml of ice-cold ND96 buffer. Each oocyte was individually transferred to a scintillation vial containing 5% sodium dodecyl sulfate (200 μl) for lysis. […] Oocytes that were injected with water instead of RNA were analyzed in parallel, representing the uptake of a drug by diffusion and/or endogenous permeation pathways. […] The specific PfCRT-mediated uptake was determined by subtracting the corresponding background value measured in water-injected oocytes from that of PfCRT-expressing oocytes. […]

For assay [2], the target named is T2, PfCRT variant H123A (Plasmodium falciparum, UniProt Q9N623, A220S/H123A/I356T/K76T/M74I/N326S/N75E/Q271E/R371I).
T2 sequence (Q9N623 1-424 M74I/N75E/K76T/H123A/A220S/Q271E/N326S/I356T/R371I): T1 sequence (Q9N623 1-424 M74I/N75A/K76T/A220S/Q271E/N326S/I356T/R371I) with A75E, H123A
Description: CQ uptake assay, oocytes expressing H123A. In kind it is cell-based. The method, then:
as §1, §2, §3

Where [3] appears, read: pH 4.5, single replicates, Fig 1d left.
Setting [4] is: pH 6.0, single replicates, Fig 1d left.

Structures are written as SMILES. Where a chain is given by its changes, count along the chain named. Values joined by “and” are separate entries in the source; they are usually repeats but may differ in a detail not shown here. Equal values may be shown once.

Consider `CCN(CC)CCCC(C)Nc1ccnc2cc(Cl)ccc12` (stereo not shown) [CQ, chloroquine], for which the “Activity at pH 4.5” value in assay [1] (E75A, 50 µM CQ, 1 h, mean ± SEM) is 0.89 ± 0.11 pmol h-1 oocyte-1. For the same compound, the R-value in assay [1] (E75A, CQ transport at pH 4.5 / pH 6.0) was found to be 0.51 ± 0.05; in assay [2] (H123A, CQ transport at pH 4.5 / pH 6.0) it was 0.36 ± 0.09. Besides, in assay [1] (setting [3]), the “E75A transport activity pH 4.5” value is 0.71 pmol oocyte-1 h-1 and 1.15 pmol oocyte-1 h-1 and 0.80 pmol oocyte-1 h-1. Besides, the “E75A R-value” in assay [1] (pH 4.5 vs pH 6.0, Fig 1d left) was 0.40 and 0.62 and 0.50. The “E75A transport activity pH 6.0” value in assay [1] (setting [4]) is 1.76 pmol oocyte-1 h-1 and 1.84 pmol oocyte-1 h-1 and 1.60 pmol oocyte-1 h-1. In addition, the “Activity at pH 6.0” value in assay [2] (H123A, 50 µM CQ, 1 h, mean ± SEM) is 4.85 ± 0.43 pmol h-1 oocyte-1. Besides, the “H123A transport activity pH 4.5” value in assay [2] (setting [3]) is 1.12 pmol oocyte-1 h-1 and 2.16 pmol oocyte-1 h-1 and 1.35 pmol oocyte-1 h-1 and 2.48 pmol oocyte-1 h-1. Also, the “H123A R-value” in assay [2] (pH 4.5 vs pH 6.0, Fig 1d left) is 0.44 and 0.35 and 0.42 and 0.27 and 0.52. For the same compound, the “H123A transport activity pH 6.0” value in assay [2] (setting [4]) was 6.18 pmol oocyte-1 h-1 and 3.21 pmol oocyte-1 h-1 and 5.14 pmol oocyte-1 h-1 and 4.96 pmol oocyte-1 h-1 and 4.77 pmol oocyte-1 h-1.

These data come from publication PMC10349806 (Nature Communications, 2023).
